Laboratory results: ChEMBL document CHEMBL6153174, “Design and Synthesis of Novel Deazapurine DNMT 1 Inhibitors with In Vivo Efficacy in DLBCL” (J Med Chem, 2025)
The source made the active and inactive calls. The calls are words filed in the database; no cut-off is given here.

Legend:
HCT-116 = assay: Antiproliferative activity against human HCT-116 cells assessed as inhibition of cell viability measured after 72 hrs by MTT assay; assay type: functional, cell-based; settings: HCT-116, 72 h
[1] = Antitumor activity against human TMD8 cells harbouring […] xenografted in mouse model assessed as tumor inhibition rate at 10 mg/kg, iv administered three times a week relative to control; assay type: functional; design: scale not given: the % may be the effect or the level left
TMD8 [2] = assay: Antiproliferative activity against human TMD8 cells assessed as inhibition of cell viability measured after 72 hrs by MTT assay; assay type: functional, cell-based; settings: TMD8, 72 h
THP-1 = assay: Antiproliferative activity against human THP-1 cells assessed as inhibition of cell viability measured after 72 hrs by MTT assay; assay type: functional, cell-based; settings: THP-1, 72 h
TMD8 [3] = assay: Induction of apoptosis in human TMD8 cells assessed as late apoptotic cells at 1 uM measured after 48 hrs by annexin-V/FITC and PI staining based flow cytometry analysis (reference value: 5.13%); assay type: functional
[4] = target: DNA (cytosine-5)-methyltransferase 1 (Homo sapiens, UniProt P26358); assay: Inhibition of DNMT1 in human DOHH-2 cells assessed as inhibition of 5-methylcytosine level at 10 to 1000 nM incubated for 48 hrs by Western blot analysis; assay type: cell-based; settings: dose 10-1000 nM
[5] = Subacute toxicity in Balb/C mouse assessed as effect on hematocrit at 30 mg/kg, iv administered three times in a week for 2 weeks; assay type: organism-based; settings: in vivo, 336 h
U-937 = assay: Antiproliferative activity against human U-937 cells assessed as inhibition of cell viability measured after 72 hrs by MTT assay; assay type: functional, cell-based; settings: U-937, 72 h
HepG2 = assay: Antiproliferative activity against human HepG2 cells assessed as inhibition of cell viability measured after 72 hrs by MTT assay; assay type: functional, cell-based; settings: HepG2, 72 h
[6] = Antitumor activity against human TMD8 cells harbouring […] xenografted in mouse model assessed as body weight change at 10 mg/kg, iv administered three times a week relative to control; assay type: functional
TMD8 [7] = assay: Induction of apoptosis in human TMD8 cells assessed as early apoptotic cells at 1 uM measured after 48 hrs by annexin-V/FITC and PI staining based flow cytometry analysis (reference value: 9.15%); assay type: functional
DOHH-2 [8] = assay: Induction of cell cycle arrest in human DOHH-2 cells assessed as accumulation of cells at G2-M phase at 0.5 uM incubated for 24 hrs by PI staining based flow cytometry analysis (reference value: 27.8%); assay type: functional
DOHH-2 [9] = assay: Induction of apoptosis in human DOHH-2 cells assessed as late apoptotic cells at 0.25 uM measured after 48 hrs by annexin-V/FITC and PI staining based flow cytometry analysis (reference value: 3.66%); assay type: functional
[10] = Oral bioavailability in Sprague-Dawley rat at 10 mg/kg measured upto 24 hrs by LC/MS/MS analysis; assay type: ADME, organism-based; settings: Sprague-Dawley, in vivo
TMD8 [11] = assay: Induction of cell cycle arrest in human TMD8 cells assessed as accumulation of cells at S phase at 0.25 uM incubated for 24 hrs by PI staining based flow cytometry analysis (reference value: 39.0%); assay type: functional
[12] = Terminal elimination half life in Sprague-Dawley rat at 10 mg/kg, iv measured upto 24 hrs by LC/MS/MS analysis; assay type: ADME, organism-based; settings: in vivo, read-out: beta t1/2 (converted)
[13] = Subacute toxicity in Balb/C mouse assessed as effect on liver at 30 mg/kg, iv administered three times in a week for 2 weeks; assay type: organism-based; settings: in vivo, 336 h
[14] = Subacute toxicity in Balb/C mouse assessed as effect on platelet at 30 mg/kg, iv administered three times in a week for 2 weeks; assay type: organism-based; settings: in vivo, 336 h
DOHH-2 [15] = assay: Induction of apoptosis in human DOHH-2 cells assessed as early apoptotic cells measured after 48 hrs by annexin-V/FITC and PI staining based flow cytometry analysis; assay type: functional, cell-based; settings: dose 0.25-5 µM
DOHH-2 [16] = assay: Antiproliferative activity against human DOHH-2 cells assessed as inhibition of cell viability measured after 72 hrs by MTT assay; assay type: functional, cell-based; settings: DOHH-2, 72 h
TMD8 [17] = assay: Induction of apoptosis in human TMD8 cells assessed as early apoptotic cells measured after 48 hrs by annexin-V/FITC and PI staining based flow cytometry analysis; assay type: functional, cell-based; settings: dose 1-10 µM
[18] = Subacute toxicity in Balb/C mouse assessed as effect on red blood cells at 30 mg/kg, iv administered three times in a week for 2 weeks; assay type: organism-based; settings: in vivo, 336 h
[19] = Antitumor activity against human TMD8 cells harbouring […] xenografted in mouse model assessed as body weight change at 10 mg/kg, iv administered three times a week in presence of chidamide relative to control; assay type: functional
DOHH-2 [20] = assay: Induction of apoptosis in human DOHH-2 cells assessed as late apoptotic cells at 5 uM measured after 48 hrs by annexin-V/FITC and PI staining based flow cytometry analysis (reference value: 3.66%); assay type: functional
MOLM-13 = assay: Antiproliferative activity against human MOLM-13 cells assessed as inhibition of cell viability measured after 72 hrs by MTT assay; assay type: functional, cell-based; settings: MOLM-13, 72 h
[21] = Subacute toxicity in Balb/C mouse assessed as change in body weight at 10 to 30 mg/kg, iv administered three times in a week for 2 weeks; assay type: organism-based; settings: in vivo, 336 h, dose 10-30 mg/kg
TMD8 [22] = assay: Induction of cell cycle arrest in human TMD8 cells assessed as accumulation of cells at S phase at 1.0 uM incubated for 24 hrs by PI staining based flow cytometry analysis (reference value: 39.0%); assay type: functional
DOHH-2 [23] = assay: Induction of cell cycle arrest in human DOHH-2 cells assessed as accumulation of cells at S phase at 0.5 uM incubated for 24 hrs by PI staining based flow cytometry analysis (reference value: 40.7%); assay type: functional
MDA-MB-231 = assay: Antiproliferative activity against human MDA-MB-231 cells assessed as inhibition of cell viability measured after 72 hrs by MTT assay; assay type: functional, cell-based; settings: MDA-MB-231, 72 h
[24] = Antitumor activity against human TMD8 cells harbouring TP53 mutant xenografted in mouse model assessed as body weight change at 10 mg/kg, iv administered three times a week in presence of chidamide relative to control; assay type: functional
TMD8 [25] = assay: Induction of apoptosis in human TMD8 cells assessed as late apoptotic cells measured after 48 hrs by annexin-V/FITC and PI staining based flow cytometry analysis; assay type: functional, cell-based; settings: dose 1-10 µM
TMD8 [26] = assay: Induction of apoptosis in human TMD8 cells assessed as late apoptotic cells at 5 uM measured after 48 hrs by annexin-V/FITC and PI staining based flow cytometry analysis (reference value: 5.13%); assay type: functional
[27] = Antitumor activity against human TMD8 cells harbouring TP53 mutant xenografted in mouse model assessed as tumor inhibition rate at 10 mg/kg, iv administered three times a week in presence of chidamide relative to control; assay type: functional; design: scale not given: the % may be the effect or the level left

Sequence of DNA (cytosine-5)-methyltransferase 1 (P26358 whole entry): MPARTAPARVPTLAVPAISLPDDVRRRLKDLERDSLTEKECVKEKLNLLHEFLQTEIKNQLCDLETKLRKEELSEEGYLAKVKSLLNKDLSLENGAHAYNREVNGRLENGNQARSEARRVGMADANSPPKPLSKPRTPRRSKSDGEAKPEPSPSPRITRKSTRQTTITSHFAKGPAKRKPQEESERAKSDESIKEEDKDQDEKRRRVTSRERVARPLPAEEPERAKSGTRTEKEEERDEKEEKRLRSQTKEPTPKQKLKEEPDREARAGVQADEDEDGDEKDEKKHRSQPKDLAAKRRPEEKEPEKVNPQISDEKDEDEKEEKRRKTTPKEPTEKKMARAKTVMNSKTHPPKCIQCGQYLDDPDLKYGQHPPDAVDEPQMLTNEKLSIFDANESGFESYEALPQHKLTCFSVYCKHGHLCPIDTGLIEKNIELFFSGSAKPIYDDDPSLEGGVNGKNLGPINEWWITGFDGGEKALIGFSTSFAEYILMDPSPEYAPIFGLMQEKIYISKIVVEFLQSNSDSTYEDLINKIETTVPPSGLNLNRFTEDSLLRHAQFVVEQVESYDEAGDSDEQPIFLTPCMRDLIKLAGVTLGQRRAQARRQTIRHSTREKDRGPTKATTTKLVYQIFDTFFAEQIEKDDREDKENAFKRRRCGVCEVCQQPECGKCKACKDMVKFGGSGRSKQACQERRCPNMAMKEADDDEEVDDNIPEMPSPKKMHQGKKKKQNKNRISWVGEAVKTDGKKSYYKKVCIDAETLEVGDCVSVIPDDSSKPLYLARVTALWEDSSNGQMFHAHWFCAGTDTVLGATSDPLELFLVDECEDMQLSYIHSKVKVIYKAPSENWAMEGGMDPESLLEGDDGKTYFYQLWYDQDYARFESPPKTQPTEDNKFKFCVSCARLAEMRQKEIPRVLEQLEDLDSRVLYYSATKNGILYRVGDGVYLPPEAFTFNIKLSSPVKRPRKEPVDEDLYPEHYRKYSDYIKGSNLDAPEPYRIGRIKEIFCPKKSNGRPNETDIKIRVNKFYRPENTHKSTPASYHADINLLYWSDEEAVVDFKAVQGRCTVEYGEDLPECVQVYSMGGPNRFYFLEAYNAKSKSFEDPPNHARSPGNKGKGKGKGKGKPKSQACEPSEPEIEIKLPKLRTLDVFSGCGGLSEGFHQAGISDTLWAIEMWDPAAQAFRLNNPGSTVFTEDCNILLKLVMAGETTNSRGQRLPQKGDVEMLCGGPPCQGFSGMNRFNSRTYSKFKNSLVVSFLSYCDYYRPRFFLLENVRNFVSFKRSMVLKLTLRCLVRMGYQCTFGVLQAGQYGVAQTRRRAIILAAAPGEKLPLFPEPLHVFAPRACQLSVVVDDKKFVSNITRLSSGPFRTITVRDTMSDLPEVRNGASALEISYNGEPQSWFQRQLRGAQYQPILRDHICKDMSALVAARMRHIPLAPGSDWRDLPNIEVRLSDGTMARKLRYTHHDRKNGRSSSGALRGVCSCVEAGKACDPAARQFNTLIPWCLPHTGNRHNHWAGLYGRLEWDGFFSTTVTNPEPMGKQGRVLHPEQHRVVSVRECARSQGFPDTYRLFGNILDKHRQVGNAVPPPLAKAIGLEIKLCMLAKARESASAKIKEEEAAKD

Compound: CN1CCC(Nc2nc(-c3ccnc(F)c3)nc3c2ccn3CCCN2CCCC2)CC1
- IC50 (HCT-116): 0.72 µM
- Activity [1]: 65.7%
- IC50 (TMD8 [2]): 0.5 µM
- IC50 (THP-1): 2.37 µM
- Activity (TMD8 [3]): 6.88%
- inhibition [4]: Active
- Activity [5]: Non-toxic
- IC50 (U-937): 2.21 µM
- IC50 (HepG2): 2.88 µM
- Activity [6]: 6.8%
- Activity (TMD8 [7]): 15.7%
- Activity (DOHH-2 [8]): 29.1%
- Activity (DOHH-2 [9]): 7.58%
- bioavailability [10]: 23.4%
- Activity (TMD8 [11]): 37.8%
- half-life [12]: 10.8 h
- Activity [13]: Non-toxic
- Activity [14]: Non-toxic
- Activity (DOHH-2 [15]): Dose-dependent-effect
- IC50 (DOHH-2 [16]): 0.19 µM
- Activity (TMD8 [17]): Dose-dependent-effect
- Activity [18]: Non-toxic
- Activity [19]: 1.1%
- Activity (DOHH-2 [20]): 34.7%
- IC50 (MOLM-13): 1.06 µM
- Activity [21]: Non-toxic
- Activity (TMD8 [22]): 29.3%
- Activity (DOHH-2 [23]): 26.6%
- IC50 (MDA-MB-231): 3.91 µM
- Activity [24]: -1.5%
- Activity (TMD8 [25]): Dose-dependent-effect
- Activity (TMD8 [26]): 17%
- Activity [27]: 83.2%
